Test results published in ChEMBL document CHEMBL5154793, “Discovery of Thieno[2,3-d]pyrimidine-based KRAS G12D inhibitors as potential anticancer agents via combinatorial virtual screening” (Eur J Med Chem, 2022).
Calls of active or inactive are those of the source. The calls are words filed in the database; no cut-off is given here.

How the values were obtained:
[1] = Toxicity in BALB/c mouse allografted with mouse CT26 cells assessed as HGB level at 40 to 60 mg/kg, ip administered once a day for 10 days (reference value: 0.319 to 108 g/L); format: organism-based; settings: in vivo, 240 h, dose 40-60 mg/kg, time 10 day
[2] = tested on: SW1990; test: Induction of apoptosis in human SW1990 cells assessed as necrotic cells at 4 uM measured after 24 hrs by PI/Annexin V staining based flow cytometric analysis (reference value: 2.69%); format: functional
[3] = tested on: CT26; test: Induction of apoptosis in mouse CT26 cells assessed as viable cells at 4 uM measured after 24 hrs by PI/Annexin V staining based flow cytometric analysis (reference value: 84.8%); format: functional; settings: read-out: Activity
[4] = tested on: CT26; test: Antitumor activity against mouse CT26 cells allografted in BALB/c mouse assessed as tumor volume at 40 mg/kg, ip administered once a day for 10 days; format: functional; settings: time 10 day
[5] = tested on: GTPase KRas (Homo sapiens), P01116 [G12D]; test: Binding affinity to human his-tagged KRAS G12D mutant assessed as change in entropy by isothermal titration calorimetry
[6] = Toxicity in BALB/c mouse allografted with mouse CT26 cells assessed as eosinophil level at 40 to 60 mg/kg, ip administered once a day for 10 days (reference value: 16 to 17.3 %); format: organism-based; settings: in vivo, 240 h, dose 40-60 mg/kg, time 10 day
[7] = Toxicity in BALB/c mouse allografted with mouse CT26 cells assessed as monocyte level at 40 to 60 mg/kg, ip administered once a day for 10 days (reference value: 0.170 to 0.540 10^9/L); format: organism-based; settings: in vivo, 240 h, dose 40-60 mg/kg, time 10 day
[8] = Toxicity in BALB/c mouse allografted with mouse CT26 cells assessed as WBC level at 40 to 60 mg/kg, ip administered once a day for 10 days (reference value: 3.090 to 6.730 10^9/L); format: organism-based; settings: in vivo, 240 h, dose 40-60 mg/kg, time 10 day
[9] = tested on: GTPase KRas (Homo sapiens), P01116 [G12D]; test: Inhibition of KRAS G12D mutant (unknown origin) downstream signalling in human SW1990 cells assessed as suppression of Raf phosphorylation incubated for 24 hrs by pull down based Western blotting analysis; format: cell-based; settings: dose <= 16.0 µM, DDE = dose-dependent effect
[10] = tested on: CT26; test: Induction of apoptosis in mouse CT26 cells assessed as necrotic cells at 8 uM measured after 24 hrs by PI/Annexin V staining based flow cytometric analysis (reference value: 0.789%); format: functional
[11] = tested on: SW1990; test: Induction of apoptosis in human SW1990 cells assessed as early apoptotic cells at 4 uM measured after 24 hrs by PI/Annexin V staining based flow cytometric analysis (reference value: 10.7%); format: functional
[12] = Toxicity in BALB/c mouse allografted with mouse CT26 cells assessed as body weight loss at 40 to 60 mg/kg, ip administered once a day for 10 days; format: organism-based; settings: in vivo, 240 h, dose 40-60 mg/kg, time 10 day
[13] = tested on: SW1990; test: Induction of apoptosis in human SW1990 cells assessed as late apoptotic cells at 2 uM measured after 24 hrs by PI/Annexin V staining based flow cytometric analysis (reference value: 3.75%); format: functional
[14] = Toxicity in BALB/c mouse allografted with mouse CT26 cells assessed as neutrophil level at 40 to 60 mg/kg, ip administered once a day for 10 days (reference value: 1.080 to 1.250 10^9/L); format: organism-based; settings: in vivo, 240 h, dose 40-60 mg/kg, time 10 day
[15] = Toxicity in BALB/c mouse allografted with mouse CT26 cells assessed as basophil level at 40 to 60 mg/kg, ip administered once a day for 10 days (reference value: 0.050 to 40.3 10^9/L); format: organism-based; settings: in vivo, 240 h, dose 40-60 mg/kg, time 10 day
[16] = tested on: CT26; test: Induction of apoptosis in mouse CT26 cells assessed as early apoptotic cells at 2 uM measured after 24 hrs by PI/Annexin V staining based flow cytometric analysis (reference value: 11.2%); format: functional
[17] = tested on: SW1990; test: Induction of apoptosis in human SW1990 cells assessed as necrotic cells at 2 uM measured after 24 hrs by PI/Annexin V staining based flow cytometric analysis (reference value: 2.69%); format: functional
[18] = tested on: CT26; test: Induction of apoptosis in mouse CT26 cells assessed as viable cells at 2 uM measured after 24 hrs by PI/Annexin V staining based flow cytometric analysis (reference value: 84.8%); format: functional; settings: read-out: Activity
[19] = tested on: PANC-1; test: Antiproliferative activity against human PANC1 cells harboring KRAS G12D mutant assessed as inhibition of cell viability after 24 hrs by MTT assay; format: functional, cell-based; settings: PANC-1, 24 h
[20] = Toxicity in BALB/c mouse allografted with mouse CT26 cells assessed as RDW-CV level at 40 to 60 mg/kg, ip administered once a day for 10 days (reference value: 13.3 to 23.8 %); format: organism-based; settings: in vivo, 240 h, dose 40-60 mg/kg, time 10 day
[21] = tested on: HeLa; test: Antiproliferative activity against human HeLa cells harboring wild type KRAS assessed as inhibition of cell viability after 24 hrs by MTT assay; format: functional, cell-based
[22] = tested on: CT26; test: In vivo inhibition of KRAS G12D mutant (unknown origin) mediated downstream signalling in mouse CT26 cells allografted in BALB/c mouse assessed as decrease in phosphorylation level of ErK in tumor tissue at 40 to 60 mg/kg, ip administered once a day for 10 days by Western blotting analysis; format: functional, organism-based; settings: dose 40-60 mg/kg, time 10.0 day
[23] = Toxicity in BALB/c mouse allografted with mouse CT26 cells assessed as effect on heart morphology at 40 to 60 mg/kg, ip administered once a day for 10 days by H and E staining based microscopic analysis; format: organism-based; settings: in vivo, 240 h, dose 40-60 mg/kg, time 10 day
[24] = target: GTPase KRas (Homo sapiens, UniProt P01116, G12D); test: Binding affinity to human his-tagged KRAS G12D mutant assessed as dissociation constant by isothermal titration calorimetry
[25] = tested on: GTPase KRas (Homo sapiens), P01116 [G12D]; test: Binding affinity to human his-tagged KRAS G12D mutant assessed as gibbs free energy change by isothermal titration calorimetry
[26] = tested on: CT26; test: Induction of apoptosis in mouse CT26 cells assessed as late apoptotic cells at 2 uM measured after 24 hrs by PI/Annexin V staining based flow cytometric analysis (reference value: 3.21%); format: functional
[27] = tested on: CT26; test: Antitumor activity against mouse CT26 cells allografted in BALB/c mouse assessed as inhibition of tumor growth at 60 mg/kg, ip administered once a day for 10 days; format: functional; settings: CT26, 240 h, time 10 day, read-out: TGI
[28] = tested on: SW1990; test: Induction of apoptosis in human SW1990 cells assessed as early apoptotic cells at 2 uM measured after 24 hrs by PI/Annexin V staining based flow cytometric analysis (reference value: 10.7%); format: functional
[29] = tested on: CT26; test: Induction of apoptosis in mouse CT26 cells assessed as early apoptotic cells at 8 uM measured after 24 hrs by PI/Annexin V staining based flow cytometric analysis (reference value: 11.2%); format: functional
[30] = tested on: CT26; test: Induction of apoptosis in mouse CT26 cells assessed as late apoptotic cells at 4 uM measured after 24 hrs by PI/Annexin V staining based flow cytometric analysis (reference value: 3.21%); format: functional
[31] = Toxicity in BALB/c mouse allografted with mouse CT26 cells assessed as MPV level at 40 to 60 mg/kg, ip administered once a day for 10 days (reference value: 15 to 63 fL); format: organism-based; settings: in vivo, 240 h, dose 40-60 mg/kg, time 10 day
[32] = tested on: SW1990; test: Induction of apoptosis in human SW1990 cells assessed as viable cells at 8 uM measured after 24 hrs by PI/Annexin V staining based flow cytometric analysis (reference value: 82.9%); format: functional; settings: read-out: Activity

Sequence of GTPase KRas (Homo sapiens), P01116 [G12D] (P01116 whole entry G12D, looked up): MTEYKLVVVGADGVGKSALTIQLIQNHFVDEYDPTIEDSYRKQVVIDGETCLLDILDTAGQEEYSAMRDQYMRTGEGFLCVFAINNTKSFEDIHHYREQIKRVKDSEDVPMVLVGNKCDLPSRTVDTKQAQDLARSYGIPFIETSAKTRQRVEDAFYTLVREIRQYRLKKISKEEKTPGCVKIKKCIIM
Sequence of GTPase KRas (P01116 whole entry G12D): as the sequence (P01116 whole entry G12D, looked up) above

Compound `COc1ccc(C(F)(F)F)cc1-c1cc2c(N3CC4CCC(C3)N4)ncnc2s1` has an Activity [1] of 0.41 g/L, an Activity [2] of 8.76% and a viability at 4 µM [3] of 38.8%. For the same compound, the Activity [4] was 17%, the -TdeltaS [5] was 16.4 kcal/mol and the Activity [6] was 0.2%. For the same compound, the Activity [7] was 0.15 10^9/L, the Activity [8] was 5.05 10^9/L and the Activity [9] was “Dde”. The Activity [10] was 6.61%, the Activity [11] was 14.2% and the Activity [12] was “Non-Toxic”. For the same compound, the Activity [13] was 18.6%, the Activity [14] was 1.92 10^9/L and the Activity [15] was 0.01 10^9/L. It also gave an Activity [16] of 15.4%, an Activity [17] of 3.11% and a viability at 2 µM [18] of 78.6%. It also gave an IC50 [19] of 2.3 µM, an Activity [20] of 14% and an IC50 [21] of 7.4 µM. The Activity [22] was “Active”, the Activity [23] was “Non-Toxic” and the Kd [24] was 0.033 µM. The deltaG [25] was -10.2 kcal/mol, the Activity [26] was 4.59% and the inhibition in vivo at 60 mg/kg [27] was 53%. The Activity [28] was 3.87%, the Activity [29] was 24.4% and the Activity [30] was 20.9%. It also gave an Activity [31] of 6.2 fL and a viability at 8 µM [32] of 4.26%.
